The values below are quoted from earlier work in patent US20260035355A1, “COMPOUND, PHARMACEUTICAL COMPOSITION COMPRISING SAME, AND USE THEREOF” (SHENZHEN ZHONGGE BIOLOGICAL TECHNOLOGY CO., LTD., priority 2022, published 2026).

Each structure is given as a SMILES string.

Data set [1] relates to model animals. As to conditions: oral administration for three days; cited from earlier work.
The test system of data set [2] is healthy participants. To be noted: Phase 1, healthy participants; cited from earlier work.
Data set [3] has as its system mouse models. To be noted: cited from earlier work.

Take `NC(CO)(CO)CO.O=C(COc1ccc(Cl)c(F)c1)NC12CCC(NC(=O)COc3ccc(Cl)c(F)c3)(CC1)[C@@H](OCOP(=O)([O-])O)C2.[Na+]` [ABBV-CLS-7262]: in data set [1], the “brain function (in words)” value is “restored to youthful levels”.

Turning to `O=C(COc1ccc(Cl)cc1)NC12CC(c3nnc([C@H]4C[C@@H](OC(F)(F)F)C4)o3)(C1)C2` [DNL-343], in data set [2], the “safety and tolerability (in words)” value is “demonstrated its safety and tolerability”.

For `O=C(COc1ccc(Cl)cc1)NC1CCC(NC(=O)COc2ccc(Cl)cc2)CC1` (stereo not drawn) [ISRIB], the “long-term memory (in words)” value in data set [3] was “improve long-term memory”.
